Measured values as given in patent US9957272B2, “3-hydroxypyrrolidine inhibitors of 5′-methylthioadenosine phosphorylase and nucleosidase” (priority 2009, dated 2018).
Read-outs that look alike come from different tables or passages of the source.

Experiments:
human MTAP = target: T1, human MTAP (Homo sapiens, UniProt Q13126); test: Inhibition of human MTAP, continuous spectrophotometric assay; format: biochemical
T1 construct: made in house
T1 sequence (Q13126 1-283): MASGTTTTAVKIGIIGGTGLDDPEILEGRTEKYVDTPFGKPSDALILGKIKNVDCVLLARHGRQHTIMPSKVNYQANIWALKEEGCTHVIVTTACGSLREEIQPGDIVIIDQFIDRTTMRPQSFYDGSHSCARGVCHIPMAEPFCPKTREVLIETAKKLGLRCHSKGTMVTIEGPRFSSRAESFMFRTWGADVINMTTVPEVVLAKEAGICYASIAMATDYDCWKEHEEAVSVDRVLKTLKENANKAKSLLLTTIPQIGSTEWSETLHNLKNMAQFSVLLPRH
Text: Continuous spectrophotometric assays are used to characterize the compounds of the invention and […] inhibition of MTAP.

E. coli MTAN = target: T2, E. coli MTAN (Escherichia coli, UniProt P0AF12); test: biochemical; format: biochemical
T2 construct: made in house
Protocol: After removal of cell debris by centrifugation, the soluble cell lysates are loaded onto nickel-charged chelating Sepharose (GE Healthcare) and washed with lysis buffer containing 20-150 mM imidazole. The 6His-MTANs are eluted in 250 mM imidazole, desalted using a Sephadex G-15 (GE Healthcare) gel filtration column, equilibrated with low salt buffer (100 mM HEPES, 30 mM KCL, pH 7.6) and concentrated to 40 mg/mL.
Briefly, all experiments are carried out at 25° C., in 1 mL total reaction volume containing 100 mM HEPES buffer, pH 7.5 and 50 mM KCl with 5′-deoxymethylthioadenosine (MTA) as substrate. […] For measuring dissociation constant (Kd) of inhibitors, a xanthine oxidase-coupled assay is carried out. […] Control experiments are carried out in the absence of either inhibitor or MTAN.
[formula] where vs^t and vs are steady state rates in the presence, and absence of inhibitor, respectively; Km is substrate Michaelis constant which is obtained as described above; [S] and [I] are the concentrations of the substrate MTA and inhibitor, respectively. If the concentration of inhibitor is smaller than 10-fold concentration of enzymes, the following correction is then applied: r=I′−(1−v0′/v0)Et
All data fitting is carried out with KaleidaGraph™ ver. 3.5 (Synergy Software).

[1] = 25° C., pH 7.5, MTA as substrate, read-out: Inhibition (Ki) E. coli MTAN
[2] = read-out: Inhibition (Ki) Human MTAP

| Compound | Ki (human MTAP) [nM] | also measured |
| --- | --- | --- |
| Nc1ncnc2c(CN3C[C@@H](O)[C@H](c4cn(Cc5ccccc5)nn4)C3)c[nH]c12 (racemic) [Example 14, (±)-trans-4-(1-Benzyl-1H-1,2,3-triazol-4-yl)-1[(9-deaza-adenin-9-yl)methyl]-3-hydroxypyrrolidine] | – | Inhibition of Human MTAP (human MTAP; at 2.5 μM): ^a (indicates no inhibition observed at 2.5 μM) |
| C#C[C@@H]1CN(Cc2c[nH]c3c(N)ncnc23)C[C@H]1O (racemic) [Example 7, (±)-3,4-trans-1-[(9-Deaza-adenin-9-yl)methyl]-4-ethynyl-3-hydroxypyrrolidine] | – | Ki (E. coli MTAN; [1]): 0.39 ± 0.02 nM; Ki (human MTAP; [2]): 31 ± 3 nM |
| CC[C@@H]1CN(Cc2c[nH]c3c(N)ncnc23)C[C@H]1O (racemic) [Example 11, (±)-trans-1-[(9-Deaza-adenin-9-yl)methyl]-4-ethyl-3-hydroxypyrrolidine] | 8.6 ± 1 | Ki (E. coli MTAN): 0.31 ± 0.02 nM |
| Nc1ncnc2c(CN3C[C@@H](CC4CCCCC4)[C@H](O)C3)c[nH]c12 (racemic) [Example 2, (±)-trans-4-(Cyclohexylmethyl)-1-[(9-deaza-adenin-9-yl)methyl]-3-hydroxy-pyrrolidine] | > 5000 | – |
| Nc1ncnc2c(CN3C[C@@H](O)[C@H](c4ccccc4)C3)c[nH]c12 (racemic) [Example 1, (±)-trans-1-[(9-Deaza-adenin-9-yl)methyl]-3-hydroxy-4-phenylpyrrolidine] | 4.3 ± 0.6 | – |
| Nc1ncnc2c(CN3C[C@@H](O)[C@H](c4c[nH]nn4)C3)c[nH]c12 (racemic) [Example 15, (±)-trans-1-[(9-Deaza-adenin-9-yl)methyl]-3-hydroxy-4-(1H-1,2,3-triazol-4-yl)pyrrolidine] | – | Ki (E. coli MTAN; [1]): 2 ± 0.2 nM; Ki (human MTAP; [2]): 59 ± 8 nM |
| CCCC[C@H]1CN(Cc2c[nH]c3c(N)ncnc23)C[C@@H]1O [Example 17, (3R,4S)-4-Butyl-1-[(9-deaza-adenin-9-yl)methyl]-3-hydroxypyrrolidine] | – | Ki (human MTAP; [2]): 0.55 ± 0.07 nM |
| CCC(CC)[C@@H]1CN(Cc2c[nH]c3c(N)ncnc23)C[C@H]1O (racemic) [Example 10, (±)-trans-1-[(9-Deaza-adenin-9-yl)methyl]-3-hydroxy-4-(pent-3-yl)pyrrolidine] | > 5000 | Ki (E. coli MTAN): 0.7 ± 0.1 nM |
| CC[C@H]1CN(Cc2c[nH]c3c(N)ncnc23)C[C@H]1O (racemic) [Example 18, (±)-cis-1-[(9-Deaza-adenin-9-yl)methyl]-4-ethyl-3-hydroxypyrrolidine] | 34 ± 3 | Ki (E. coli MTAN; [1]): 1.8 ± 0.3 nM |
| CCCC[C@@H]1CN(Cc2c[nH]c3c(N)ncnc23)C[C@H]1O (racemic) [Example 8, (±)-trans-1-[(9-Deaza-adenin-9-yl)methyl]-4-butyl-3-hydroxypyrrolidine] | > 5000 | Ki (E. coli MTAN; [1]): 0.051 ± 0.003 nM |

More lines, main results first:

| Ki (human MTAP) [nM] | Compound | also measured |
| --- | --- | --- |
| 14.3 ± 1.7 | C=CC[C@@H]1CN(Cc2c[nH]c3c(N)ncnc23)C[C@H]1O (racemic) [Example 6, (±)-trans-4-Allyl-1-[(9-deaza-adenin-9-yl)methyl]-3-hydroxypyrrolidine] | – |
| 6 ± 0.4 | CC(C)C[C@@H]1CN(Cc2c[nH]c3c(N)ncnc23)C[C@H]1O (racemic) [Example 9, (±)-trans-1-[(9-Deaza-adenin-9-yl)methyl]-3-hydroxy-4-isobutylpyrrolidine] | – |
| 2.4 ± 0.4 | Nc1ncnc2c(CN3C[C@@H](O)[C@H](C4CCCC4)C3)c[nH]c12 (racemic) [Example 13, (±)-trans-4-Cyclopentyl-1-[(9-deaza-adenin-9-yl)methyl]-3-hydroxypyrrolidine] | – |
| 5.8 ± 0.7 | Nc1ncnc2c(CN3C[C@@H](O)[C@H](C4CC4)C3)c[nH]c12 (racemic) [Example 4, (±)-trans-4-Cyclopropyl-1-[(9-deaza-adenin-9-yl)methyl]-3-hydroxypyrrolidine] | – |
| > 5000 | CC[C@H]1CN(Cc2c[nH]c3c(N)ncnc23)C[C@@H]1O [Example 12] | – |
| 71 ± 5 | Nc1ncnc2c(CN3C[C@@H](CCCSCc4ccccc4)[C@H](O)C3)c[nH]c12 (racemic) [Example 16, (±)-trans-4-[3-(Benzylthio)propyl]-1-[(9-deaza-adenin-9-yl)methyl]-3-hydroxypyrrolidine] | Selectivity for bacterial MTAN (E. coli MTAN): some selectivity for bacterial MTAN |
| 8.7 ± 1 | C=C[C@@H]1CN(Cc2c[nH]c3c(N)ncnc23)C[C@H]1O (racemic) [Example 5, (±)-trans-1-[(9-Deaza-adenin-9-yl)methyl]-3-hydroxy-4-vinylpyrrolidine] | – |
